Assay [1] addresses T1, His-tagged recombinant human MER cytoplasmic domain (Homo sapiens, UniProt Q12866).
T1 construct: His-tagged recombinant human MER cytoplasmic domain
T1 sequence (Q12866 527-999 limits assumed): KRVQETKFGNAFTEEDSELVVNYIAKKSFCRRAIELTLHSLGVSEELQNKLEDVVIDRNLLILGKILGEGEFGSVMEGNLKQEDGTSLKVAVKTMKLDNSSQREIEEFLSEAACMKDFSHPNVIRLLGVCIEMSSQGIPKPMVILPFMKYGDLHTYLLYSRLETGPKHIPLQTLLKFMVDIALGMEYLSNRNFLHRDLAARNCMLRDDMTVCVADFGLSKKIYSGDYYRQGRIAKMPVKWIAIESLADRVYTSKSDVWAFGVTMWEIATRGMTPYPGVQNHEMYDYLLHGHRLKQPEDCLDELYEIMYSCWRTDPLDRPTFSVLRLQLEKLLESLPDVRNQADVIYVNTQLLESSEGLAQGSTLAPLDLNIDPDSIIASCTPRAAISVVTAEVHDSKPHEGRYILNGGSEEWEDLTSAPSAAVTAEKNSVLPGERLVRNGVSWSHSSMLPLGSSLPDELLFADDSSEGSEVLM
Nature of the assay: MER Enzyme Assay (LanthaScreen Eu Kinase Binding). As to conditions: averaged IC50; MER 5 nM; 60-minute incubation at 22° C.; TR-FRET. In a few lines:
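TR-FRET binding: 5 nM His-MER cytoplasmic domain with 20 nM Tracer 236, 2 nM biotin-anti-His and 2 nM Eu-streptavidin in pH 7.4 HEPES, 10 mM MgCl2, 2% DMSO, with threefold compound dilutions, 60 min at 22 °C. Percent of control was fit to a 4-parameter logistic, and IC50 was taken at 50 POC.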

In assay [2] the target is T2, MET (wt) GST-tagged recombinant human MET kinase domain (Homo sapiens, UniProt P08581).
T2 construct: GST-tagged recombinant human MET kinase domain; purchased Signal Chem
T2 sequence (P08581 1078-1345 limits assumed): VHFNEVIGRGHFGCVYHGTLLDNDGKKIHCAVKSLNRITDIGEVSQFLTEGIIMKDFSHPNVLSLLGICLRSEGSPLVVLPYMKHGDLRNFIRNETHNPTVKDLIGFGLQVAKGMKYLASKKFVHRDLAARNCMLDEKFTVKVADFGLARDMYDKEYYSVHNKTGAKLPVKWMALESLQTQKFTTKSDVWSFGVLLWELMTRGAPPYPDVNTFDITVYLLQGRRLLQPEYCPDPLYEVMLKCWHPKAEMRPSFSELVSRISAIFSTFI
Nature of the assay: c-Met Enzyme Assay, wild type (LanthaScreen Eu Kinase Binding). The conditions noted are these: averaged IC50; MET (wt) 10 nM; 60-minute incubation at 22° C.; read-out: SigChem WT IC50. The procedure:
(§1) The affinity of compound binding to wild type and mutant human MET kinases was measured using Invitrogen's LanthaScreen™ Eu Kinase Binding technology. Briefly, GST-tagged recombinant human MET kinase domain from Signal Chem (see Table 8 below for concentration in assay) was incubated with 50 nM Alexa-Fluor® Tracer 236 (Invitrogen Cat No. PR9078A) and 2 nM Europium-anti-GST (Invitrogen Cat. No. A15116) along with test compound in a buffer consisting of 25 mM HEPES, pH 7.4, 10 mM MgCl2, 0.01% Triton X-100, 1mM DTT, and 2% DMSO. Compounds were typically prepared in a three-fold serial dilution in DMSO and added to the assay to give the appropriate final concentration. After a 60-minute incubation at 22° C., the reaction was measured using a PerkinElmer EnVision multimode plate reader via TR-FRET dual wavelength detection, and the percent of control (POC) calculated using a ratiometric emission factor. […] The POC values were fit to a 4 parameter logistic curve and the IC50 value is point where the curve crosses 50 POC.

A further assay addresses T3, human MET kinase D1228N (Homo sapiens, UniProt P08581, D1228N).
T3 construct: GST-tagged recombinant human MET kinase domain; purchased Signal Chem
Kind of assay: c-Met Enzyme Assay, D1228N mutant. As to conditions: averaged IC50; D1228N 2 nM; 60-minute incubation at 22° C.; read-out: D1228 N IC50. The format is binding. The procedure: as §1

In assay [3] the target is T4, His-tagged recombinant human AXL cytoplasmic domain (Homo sapiens, UniProt P30530).
T4 construct: His-tagged recombinant human AXL cytoplasmic domain
T4 sequence (P30530 473-894 limits assumed): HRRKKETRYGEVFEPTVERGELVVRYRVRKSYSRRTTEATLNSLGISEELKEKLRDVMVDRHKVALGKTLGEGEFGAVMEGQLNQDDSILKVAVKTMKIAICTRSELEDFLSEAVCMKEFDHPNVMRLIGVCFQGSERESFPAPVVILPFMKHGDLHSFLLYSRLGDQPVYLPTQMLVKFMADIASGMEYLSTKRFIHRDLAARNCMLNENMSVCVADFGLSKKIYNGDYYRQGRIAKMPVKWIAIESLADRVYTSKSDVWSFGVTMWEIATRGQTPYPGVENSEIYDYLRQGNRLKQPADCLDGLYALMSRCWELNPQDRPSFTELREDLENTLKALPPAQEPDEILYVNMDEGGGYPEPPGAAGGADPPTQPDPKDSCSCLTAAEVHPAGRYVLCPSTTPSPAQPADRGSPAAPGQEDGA
Nature of the assay: AXL Enzyme Assay (LanthaScreen Eu Kinase Binding). As to conditions: averaged IC50; 60-minute incubation at 22° C.; TR-FRET. The method, boiled down: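 TR-FRET binding-displacement format: 20 nM Alexa Fluor Tracer 236, 2 nM biotin-anti-His and 2 nM Eu-streptavidin in 25 mM HEPES pH 7.4, 10 mM MgCl2, 0.01% Triton X-100, 2% DMSO. After 60 min at 22 °C, ratiometric percent of control was fitted to a 4-parameter logistic curve, IC50 taken at 50 POC.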

A further assay has as its target T5, human MET kinase Y1230S (Homo sapiens, UniProt P08581, Y1230S).
T5 construct: GST-tagged recombinant human MET kinase domain; purchased Signal Chem
Kind of assay: c-Met Enzyme Assay, Y1230S mutant. The format is binding. As to conditions: averaged IC50; Y1230S 8 nM; 60-minute incubation at 22° C.; read-out: Y1230 S IC50. The procedure: as §1

Another assay addresses T6, human MET kinase D1228H (Homo sapiens, UniProt P08581, D1228H).
T6 construct: GST-tagged recombinant human MET kinase domain; purchased Signal Chem
Nature of the assay: c-Met Enzyme Assay, D1228H mutant. It counts as binding. As to conditions: averaged IC50; D1228H 2 nM; 60-minute incubation at 22° C.; read-out: D1228 H IC50. The procedure: as §1

Another assay concerns the target T7, human MET kinase Y1230H (Homo sapiens, UniProt P08581, Y1230H).
T7 construct: GST-tagged recombinant human MET kinase domain; purchased Signal Chem
Kind of assay: c-Met Enzyme Assay, Y1230H mutant. The format is binding. The conditions noted are these: averaged IC50; Y1230H 5 nM; 60-minute incubation at 22° C.; read-out: Y1230 H IC50. The procedure:
as §1

From patent US20200216416A1, “QUINOLINE COMPOUNDS AS INHIBITORS OF TAM AND MET KINASES” (Array BioPharma Inc., priority 2019, published 2020) come the findings set out here.

T3 sequence (P08581 1078-1345 D1228N): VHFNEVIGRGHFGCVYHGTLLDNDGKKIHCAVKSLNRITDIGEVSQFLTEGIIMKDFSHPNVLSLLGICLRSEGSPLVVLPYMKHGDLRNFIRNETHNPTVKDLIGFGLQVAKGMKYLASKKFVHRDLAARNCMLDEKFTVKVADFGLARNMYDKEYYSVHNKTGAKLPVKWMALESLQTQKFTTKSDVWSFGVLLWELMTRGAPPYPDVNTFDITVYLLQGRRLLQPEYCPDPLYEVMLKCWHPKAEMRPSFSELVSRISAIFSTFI
T6 sequence (P08581 1078-1345 D1228H): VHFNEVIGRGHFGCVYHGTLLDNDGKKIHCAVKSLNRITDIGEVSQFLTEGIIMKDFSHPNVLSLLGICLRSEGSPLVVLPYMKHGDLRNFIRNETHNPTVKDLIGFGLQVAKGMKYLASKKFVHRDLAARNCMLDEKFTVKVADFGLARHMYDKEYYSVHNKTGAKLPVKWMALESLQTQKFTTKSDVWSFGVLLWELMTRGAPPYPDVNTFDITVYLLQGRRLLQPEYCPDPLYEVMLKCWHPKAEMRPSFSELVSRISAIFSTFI
T5 sequence (P08581 1078-1345 Y1230S): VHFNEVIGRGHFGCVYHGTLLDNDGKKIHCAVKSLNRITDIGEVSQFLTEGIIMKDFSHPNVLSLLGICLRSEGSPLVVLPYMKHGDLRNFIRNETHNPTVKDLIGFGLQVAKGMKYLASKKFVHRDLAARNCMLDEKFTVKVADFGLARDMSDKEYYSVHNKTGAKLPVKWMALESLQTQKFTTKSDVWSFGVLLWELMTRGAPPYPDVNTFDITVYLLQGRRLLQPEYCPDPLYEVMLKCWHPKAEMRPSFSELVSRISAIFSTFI
T7 sequence (P08581 1078-1345 Y1230H): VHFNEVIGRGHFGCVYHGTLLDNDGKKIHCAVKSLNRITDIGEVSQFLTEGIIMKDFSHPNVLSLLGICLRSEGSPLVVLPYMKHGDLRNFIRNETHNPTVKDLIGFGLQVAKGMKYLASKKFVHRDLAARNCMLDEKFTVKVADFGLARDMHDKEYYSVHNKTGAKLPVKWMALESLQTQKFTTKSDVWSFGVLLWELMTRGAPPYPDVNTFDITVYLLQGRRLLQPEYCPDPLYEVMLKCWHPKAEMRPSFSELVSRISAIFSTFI

Regarding `CCCC(CCC)n1cc(C(=O)Nc2ccc(Oc3ccnc4cc(OC)c(OC)cc34)cn2)c(=O)c(-c2ccc(F)cc2F)c1` [Example 17, 5-(2,4-difluorophenyl)-N-(5-((6,7-dimethoxyquinolin-4yl)oxy)pyridin-2-yl)-1-(heptan-4-yl)-4-oxo-1,4-dihydropyridine-3-carboxamide], the IC50 in assay [1] worked out at 52 nM; in assay [2], 17.8 nM; on human MET kinase D1228N it was 25 nM; in assay [3] it was 28 nM; at human MET kinase Y1230S, 11.4 nM; at human MET kinase D1228H, 13.3 nM. On human MET kinase Y1230H, the IC50 came out at 26.9 nM.

Take `COc1cc2nccc(Oc3ccc(NC(=O)c4cn(C(C)C)cc(-c5ccc(F)cc5Cl)c4=O)nc3)c2cc1OC` [Example 18, 5-(2-chloro-4-fluorophenyl)-N-(5-((6,7-dimethoxyquinolin-4-yl)oxy)pyridin-2-yl)-1-isopropyl-4-oxo-1,4-dihydropyridine-3-carboxamide]: the IC50 worked out at 2 nM in assay [1]; 2.7 nM in assay [2]; 4.7 nM at human MET kinase D1228N; 2 nM in assay [3]; 2.7 nM at human MET kinase Y1230S; 2.4 nM on human MET kinase D1228H. The IC50 on human MET kinase Y1230H turned out to be 4.6 nM.

As to `COc1cc2nccc(Oc3ccc(NC(=O)c4cn(C(C)C)cc(-c5ccc(F)cc5C)c4=O)nc3)c2cc1OC` [Example 19, N-(5-((6,7-dimethoxyquinolin-4yl)oxy)pyridin-2-yl)-5-(4-fluoro-2-methylphenyl)-1-isopropyl-4-oxo-1,4-dihydropyridine-3-carboxamide], the IC50 in assay [1] amounted to 2 nM; in assay [2], 1.8 nM; at human MET kinase D1228N, 3.6 nM; in assay [3], 2 nM; at human MET kinase Y1230S, 1.8 nM; on human MET kinase D1228H, 1.6 nM. Besides, the IC50 at human MET kinase Y1230H is 2.7 nM.

Regarding `COc1cc(-c2cn(C(C)C)cc(C(=O)Nc3ccc(Oc4ccnc5cc(OC)c(OC)cc45)cn3)c2=O)ccc1F` [Example 20, N-(5-((6,7-dimethoxyquinolin-4yl)oxy)pyridin-2-yl)-5-(4-fluoro-3-methoxyphenyl)-1-isopropyl-4-oxo-1,4-dihydropyridine-3-carboxamide], the half-inhibitory concentration (IC50) worked out at 3 nM in assay [1]; 5.2 nM in assay [2]; 10.4 nM at human MET kinase D1228N; 3 nM in assay [3]; 6.2 nM at human MET kinase Y1230S; 9.9 nM at human MET kinase D1228H. Also, the IC50 on human MET kinase Y1230H was determined as 9.9 nM.

Regarding `COc1cc2nccc(Oc3ccc(NC(=O)c4cn(C(C)C)cc(-c5ccc(F)c(Cl)c5)c4=O)nc3)c2cc1OC` [Example 21, 5-(3-chloro-4-fluorophenyl)-N-(5-((6,7-dimethoxyquinolin-4-yl)oxy)pyridin-2-yl)-1-isopropyl-4-oxo-1,4-dihydropyridine-3-carboxamide], the IC50 stood at 10 nM in assay [1]; 13.5 nM in assay [2]; 31 nM at human MET kinase D1228N; 10 nM in assay [3]; 29.2 nM on human MET kinase Y1230S; 18.7 nM at human MET kinase D1228H. The IC50 on human MET kinase Y1230H turned out to be 51.3 nM.

Regarding `CNC(=O)Cn1cc(C(=O)Nc2ccc(Oc3ccnc4cc(OC)c(OC)cc34)cn2)c(=O)c(-c2ccc(F)cc2)c1` [Example 22], the IC50 was 3 nM in assay [1]; 1.8 nM in assay [2]; 6.5 nM on human MET kinase D1228N; 2 nM in assay [3]; 2.2 nM at human MET kinase Y1230S; 4.2 nM on human MET kinase D1228H. The IC50 at human MET kinase Y1230H came out at 4.3 nM.

As to `COc1cc2nccc(Oc3ccc(NC(=O)c4cn(CC(=O)N(C)C)cc(-c5ccc(F)cc5)c4=O)nc3)c2cc1OC` [Example 23, N-(5-((6,7-dimethoxyquinolin-4yl)oxy)pyridin-2-yl)-1-(2-(dimethylamino)-2-oxoethyl)-5-(4-fluorophenyl)-4-oxo-1,4-dihydropyridine-3-carboxamide], the IC50 in assay [1] was 3 nM; in assay [2] it was 2.8 nM; on human MET kinase D1228N it was 13.5 nM; in assay [3], 1 nM; at human MET kinase Y1230S, 3.8 nM; on human MET kinase D1228H it was 11.5 nM. The IC50 at human MET kinase Y1230H was 7.8 nM.

As to `COc1cc2nccc(Oc3ccc(NC(=O)c4cn(CC(=O)N(C)C)cc(-c5ccc(F)c(F)c5)c4=O)nc3)c2cc1OC` [Example 24, 5-(3,4-difluorophenyl)-N-(5-((6,7-dimethoxyquinolin-4-yl)oxy)pyridin-2-yl)-1-(2-(dimethylamino)-2-oxoethyl)-4-oxo-1,4-dihydropyridine-3-carboxamide], the IC50 in assay [1] was found to be 5 nM; in assay [2] it was 7.8 nM; on human MET kinase D1228N, 36.7 nM; in assay [3], 1 nM; at human MET kinase Y1230S, 16.5 nM; on human MET kinase D1228H, 15.2 nM. Further, at human MET kinase Y1230H, the IC50 was 22.7 nM.

As to `COc1cc2nccc(Oc3ccc(NC(=O)c4cn(CC(=O)N(C)C)cc(-c5ccc(Cl)cc5)c4=O)nc3)c2cc1OC` [Example 25], the IC50 in assay [1] turned out to be 5 nM; in assay [2], 8.2 nM; at human MET kinase D1228N, 37.8 nM; in assay [3], 2 nM; on human MET kinase Y1230S, 8 nM; at human MET kinase D1228H it was 22.3 nM. Moreover, the IC50 at human MET kinase Y1230H was determined as 21.2 nM.

Take `COc1cc2nccc(Oc3ccc(NC(=O)c4c[nH]cc(-c5ccc(F)cc5)c4=O)nc3)c2cc1OC` [Example 26, N-(5-((6,7-dimethoxyquinolin-4yl)oxy)pyridin-2-yl)-5-(4-fluorophenyl)-4-oxo-1,4-dihydropyridine-3-carboxamide]: the IC50 stood at 5 nM in assay [1]; 6 nM in assay [2]; 19.2 nM at human MET kinase D1228N; 7 nM in assay [3]; 9.1 nM on human MET kinase Y1230S; 12.5 nM at human MET kinase D1228H. In addition, the half-maximal inhibitory concentration (IC50) at human MET kinase Y1230H turned out to be 17 nM.

Turning to `COc1cc2nccc(Oc3ccc(NC(=O)c4cn(C(C)C)c(C)c(-c5ccc(F)cc5)c4=O)nc3)c2cc1OC` [Example 27, N-(5-((6,7-dimethoxyquinolin-4yl)oxy)pyridin-2-yl)-5-(4-fluorophenyl)-1-isopropyl-6-methyl-4-oxo-1,4-dihydropyridine-3-carboxamide], the IC50 in assay [1] was determined as 2 nM; in assay [2], 1.8 nM; at human MET kinase D1228N it was 2 nM; in assay [3] it was 1 nM; at human MET kinase Y1230S it was 1.1 nM; at human MET kinase D1228H, 1.1 nM. Further, the half-maximal inhibitory concentration (IC50) on human MET kinase Y1230H was determined as 2.3 nM.
